Patent US20110189149A1, “New Uses of Lactic Acid Bacteria and Bifidobacteria” (priority 2008, published 2011)

Experiment: Intraperitoneal insulin sensitivity test (IPIST)
Assay type: in vivo, mice
Conditions: fasted 16 hours, 0.5 IU/kg intraperitoneal, after 30 minutes
Procedure: Nineteen weeks after the beginning of the study, 5 mice in each group (control diet and HFD) were weighed and subjected to an intraperitoneal insulin sensitivity test (IPIST, the protocol of which is detailed below) to check the insulin resistance of the mice. At week 20, glycaemia tests, the protocol of which is detailed below, were performed. Just after the end of these tests, mice received daily 10^9 CFU of Lactobacillus acidophilus NCFM/mouse/day by oral gavage, for 3 weeks. At week 23, animals were sacrificed after weighing and after determination of glycaemia.
Mice were fasted for 16 hours and received an intraperitoneal injection of human recombinant insulin (0.5 International Units/kg body weight); Actrapid®, Novo-Nordisk, Bagsvaerd, Denmark). Blood glucose was assayed immediately before and at 15, 30, 45, and 60 minutes after injection using a digital glucometer (Medisense Optium, Abbott, Rungis, France).

## insulin: human recombinant insulin (Actrapid, Novo-Nordisk) injected intraperitoneally in the IPIST test
Control diet group
  decrease of glycaemia after insulin injection: around 70%
high-fat diet group
  decrease of glycaemia after insulin injection: around 45%
